Measured values reported in the supplement of paper PMC11208160.

Assay: recombinant UMI read abundance after kanamycin selection (control-corrected) (log10(CPM+1)); higher = more efficient recombination; extreme values may be limits of the assay; sequences stand for … in AGTGCAGAGAAAATCGGCCAGTTTTCTCTGCCTGCAGTCCGCATGCCGTGGGACCCCTTGGGTTCTAACCTGTTGCCTAGATTTATGCAGCGGACTGCCTTTCTCCCAAAGTGATAAACCGG…AGGTTGGTTTCACT; site = the 11-nt donor
Method in brief: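 Sequencing read counts were converted to CPM, averaged over two replicates and scaled by control-derived factors. Results are given as log10(CPM+1). The reads covered the donor–target junction of recombinant UMIs from a pooled Escherichia coli screen of donor and donor-binding-loop pairs for the IS621 bridge recombinase.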
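Further: IS621 bridge recombinase in Escherichia coli cells against a fixed T5 target plasmid.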

| Sequence | recombinant UMI read abundance (log10) |
| --- | --- |
| GCCAAGCCATGGACCGGTTTTCCCGGTAATCCGTATTTGGG (site GCCAAGCCTCC) | 0.0135 |
| GCCAAGCCATGGACCGGTTTTCCCGGTAATCCGTATTTGGG (site GCGAAGCCTCC) | 0 |
| GCCAAGCCATGGACCGGTTTTCCCGGTAATCCGTATTTGGG (site GCTAAGCCTCC) | 0 |
| GCCAATCCATGGACCGGTTTTCCCGGTAATCCGTATTTGAA (site GACAATCCTTT) | 0.01 |
| GCCAATCCATGGACCGGTTTTCCCGGTAATCCGTATTTGAA (site GCCAATCCTTT) | 0.53 |
| GCCAATCCATGGACCGGTTTTCCCGGTAATCCGTATTTGAA (site GGCAATCCTTT) | 0 |
| GCCAATCCATGGACCGGTTTTCCCGGTAATCCGTATTTGAA (site GTCAATCCTTT) | 0.00267 |
| GCCACAGCATGGACCGGTTTTCCCGGTAATCCGTATTTGTT (site GCCACAGCTAA) | 1.48 |
| GCCACCCCATGGACCGGTTTTCCCGGTAATCCGTATTTGTA (site GCCACACCTTA) | 0.0331 |
| GCCACCCCATGGACCGGTTTTCCCGGTAATCCGTATTTGTA (site GCCACCCCTTA) | 0 |
| GCCACCCCATGGACCGGTTTTCCCGGTAATCCGTATTTGTA (site GCCACGCCTTA) | 0 |
| GCCACCCCATGGACCGGTTTTCCCGGTAATCCGTATTTGTA (site GCCACTCCTTA) | 0.0101 |
| GCCACCGCATGGACCGGTTTTCCCGGTAATCCGTATTTGCG (site ACCACCGCTCG) | 0.439 |
| GCCACCGCATGGACCGGTTTTCCCGGTAATCCGTATTTGCG (site CCCACCGCTCG) | 0.0179 |
| GCCACCGCATGGACCGGTTTTCCCGGTAATCCGTATTTGCG (site GCCACCGCTCG) | 0.939 |
| GCCACCGCATGGACCGGTTTTCCCGGTAATCCGTATTTGCG (site TCCACCGCTCG) | 0.00586 |
| GCCACGCCATGGACCGGTTTTCCCGGTAATCCGTATTTGTT (site GCCACGCCTAA) | 0.0554 |
| GCCACGCCATGGACCGGTTTTCCCGGTAATCCGTATTTGTT (site GCCACGCCTCA) | 0.0173 |
| GCCACGCCATGGACCGGTTTTCCCGGTAATCCGTATTTGTT (site GCCACGCCTGA) | 0 |
| GCCACGCCATGGACCGGTTTTCCCGGTAATCCGTATTTGTT (site GCCACGCCTTA) | 0.00385 |
| GCCACGTCATGGACCGGTTTTCCCGGTAATCCGTATTTGTA (site GCCACGACTTA) | 0.0796 |
| GCCACGTCATGGACCGGTTTTCCCGGTAATCCGTATTTGTA (site GCCACGCCTTA) | 0.0201 |
| GCCACGTCATGGACCGGTTTTCCCGGTAATCCGTATTTGTA (site GCCACGGCTTA) | 0 |
| GCCACGTCATGGACCGGTTTTCCCGGTAATCCGTATTTGTA (site GCCACGTCTTA) | 2.47 |
| GCCACTGCATGGACCGGTTTTCCCGGTAATCCGTATTTGCC (site GCAACTGCTGG) | 1.19 |

| Sequence | recombinant UMI read abundance (log10) |
| --- | --- |
| GCCACTGCATGGACCGGTTTTCCCGGTAATCCGTATTTGCC (site GCCACTGCTGG) | 1.63 |
| GCCACTGCATGGACCGGTTTTCCCGGTAATCCGTATTTGCC (site GCGACTGCTGG) | 0 |
| GCCACTGCATGGACCGGTTTTCCCGGTAATCCGTATTTGCC (site GCTACTGCTGG) | 0 |
| GCCACTTCATGGACCGGTTTTCCCGGTAATCCGTATTTGTT (site GCCACTTCTAA) | 0.855 |
| GCCAGACCATGGACCGGTTTTCCCGGTAATCCGTATTTGGA (site GCCAGACCTTC) | 0.0205 |
| GCCAGTCCATGGACCGGTTTTCCCGGTAATCCGTATTTGAT (site GCCAGTCCTAT) | 0.00932 |
| GCCATACCATGGACCGGTTTTCCCGGTAATCCGTATTTGTG (site GCCATACCTCA) | 0.00697 |
| GCCATGCCATGGACCGGTTTTCCCGGTAATCCGTATTTGTA (site GCCAAGCCTTA) | 0.00915 |
| GCCATGCCATGGACCGGTTTTCCCGGTAATCCGTATTTGTA (site GCCACGCCTTA) | 0.0146 |
| GCCATGCCATGGACCGGTTTTCCCGGTAATCCGTATTTGTA (site GCCAGGCCTTA) | 0.00785 |
| GCCATGCCATGGACCGGTTTTCCCGGTAATCCGTATTTGTA (site GCCATGCCTTA) | 1.26 |
| GCCCCGCCATGGACCGGTTTTCCCGGTAATCCGTATTTGTA (site GCCACGCCTTA) | 0.324 |
| GCCCCGCCATGGACCGGTTTTCCCGGTAATCCGTATTTGTA (site GCCCCGCCTTA) | 0.478 |
| GCCCCGCCATGGACCGGTTTTCCCGGTAATCCGTATTTGTA (site GCCGCGCCTTA) | 0.0226 |
| GCCCCGCCATGGACCGGTTTTCCCGGTAATCCGTATTTGTA (site GCCTCGCCTTA) | 0.00782 |
| GCCCGAGCATGGACCGGTTTTCCCGGTAATCCGTATTTGAA (site GCCCGAGCTTT) | 1.82 |
| GCCCTCGCATGGACCGGTTTTCCCGGTAATCCGTATTTGAC (site GCCCTCGCTGT) | 2.61 |
| GCCGATACATGGACCGGTTTTCCCGGTAATCCGTATTTGTA (site GCCGATACTTA) | 1.91 |
| GCCGGCTCATGGACCGGTTTTCCCGGTAATCCGTATTTGGA (site GCCGGCTCTTC) | 0.632 |
| GCCGTATCATGGACCGGTTTTCCCGGTAATCCGTATTTGAA (site GCCGTATCTTT) | 2.31 |
| GCCTACTCATGGACCGGTTTTCCCGGTAATCCGTATTTGGA (site GCCTACTCTTC) | 1.91 |
| GCCTCCGCATGGACCGGTTTTCCCGGTAATCCGTATTTGAG (site GCCTCCGCTCT) | 0.364 |
| GCCTCCTCATGGACCGGTTTTCCCGGTAATCCGTATTTGCT (site GCCTCCTCTAG) | 2.9 |
| GCCTTAGCATGGACCGGTTTTCCCGGTAATCCGTATTTGCC (site GCCTTAGCTGG) | 0 |
| GCGAAAACATGGACCGGTTTTCCCGGTAATCCGTATTTGCC (site GCGAAAACTAG) | 0 |

| Sequence | recombinant UMI read abundance (log10) |
| --- | --- |
| GCGAAAACATGGACCGGTTTTCCCGGTAATCCGTATTTGCC (site GCGAAAACTCG) | 0 |
| GCGAAAACATGGACCGGTTTTCCCGGTAATCCGTATTTGCC (site GCGAAAACTGG) | 0 |
| GCGAAAACATGGACCGGTTTTCCCGGTAATCCGTATTTGCC (site GCGAAAACTTG) | 0 |
| GCGAAAACATGGACCGGTTTTCCCGGTAATCCGTATTTGCT (site ACGAAAACTAG) | 2.25 |
| GCGAAAACATGGACCGGTTTTCCCGGTAATCCGTATTTGCT (site CCGAAAACTAG) | 0 |
| GCGAAAACATGGACCGGTTTTCCCGGTAATCCGTATTTGCT (site GAGAAAACTAG) | 0 |
| GCGAAAACATGGACCGGTTTTCCCGGTAATCCGTATTTGCT (site GCAAAAACTAG) | 0 |
| GCGAAAACATGGACCGGTTTTCCCGGTAATCCGTATTTGCT (site GCCAAAACTAG) | 0 |
| GCGAAAACATGGACCGGTTTTCCCGGTAATCCGTATTTGCT (site GCGAAAACTAA) | 0.207 |
| GCGAAAACATGGACCGGTTTTCCCGGTAATCCGTATTTGCT (site GCGAAAACTAC) | 0 |
| GCGAAAACATGGACCGGTTTTCCCGGTAATCCGTATTTGCT (site GCGAAAACTAG) | 0.854 |
| GCGAAAACATGGACCGGTTTTCCCGGTAATCCGTATTTGCT (site GCGAAAACTAT) | 0.00596 |
| GCGAAAACATGGACCGGTTTTCCCGGTAATCCGTATTTGCT (site GCGAAAACTCG) | 0 |
| GCGAAAACATGGACCGGTTTTCCCGGTAATCCGTATTTGCT (site GCGAAAACTGG) | 0 |
| GCGAAAACATGGACCGGTTTTCCCGGTAATCCGTATTTGCT (site GCGAAAACTTG) | 0 |
| GCGAAAACATGGACCGGTTTTCCCGGTAATCCGTATTTGCT (site GCGAAACCTAG) | 0 |
| GCGAAAACATGGACCGGTTTTCCCGGTAATCCGTATTTGCT (site GCGAAAGCTAG) | 0 |
| GCGAAAACATGGACCGGTTTTCCCGGTAATCCGTATTTGCT (site GCGAAATCTAG) | 0.325 |
| GCGAAAACATGGACCGGTTTTCCCGGTAATCCGTATTTGCT (site GCGAACACTAG) | 0.232 |
| GCGAAAACATGGACCGGTTTTCCCGGTAATCCGTATTTGCT (site GCGAAGACTAG) | 0 |
| GCGAAAACATGGACCGGTTTTCCCGGTAATCCGTATTTGCT (site GCGAATACTAG) | 0 |
| GCGAAAACATGGACCGGTTTTCCCGGTAATCCGTATTTGCT (site GCGACAACTAG) | 0.0316 |
| GCGAAAACATGGACCGGTTTTCCCGGTAATCCGTATTTGCT (site GCGAGAACTAG) | 0 |
| GCGAAAACATGGACCGGTTTTCCCGGTAATCCGTATTTGCT (site GCGATAACTAG) | 0.603 |
| GCGAAAACATGGACCGGTTTTCCCGGTAATCCGTATTTGCT (site GCGCAAACTAG) | 0 |
